Data taken from ChEMBL document CHEMBL1131906, “Synthesis and structure-activity relationships of new second-generation taxoids” (Bioorg Med Chem Lett, 1999).

How the values were obtained:
MCF7 [1] = assay: Inhibitory activity against the growth of MCF-7 (human breast carcinoma) cell line after 72 hours of drug exposure; format: functional, cell-based; conditions: MCF7, 72 h
MCF7 [2] = assay: Inhibitory activity against the growth of MCF-7R ( multi drug resistant human breast carcinoma) cell line after 72 hours of drug exposure; format: functional, cell-based; conditions: MCF7, 72 h
[3] = Inhibitory activity against the growth of LCC6-WT (human breast carcinoma) cell line after 72 hours of drug exposure; format: functional
MCF7 [4] = assay: Ratio of activities, drug resistant (R) to drug sensitive (S) carcinoma cell lines; format: functional, Homo sapiens
[5] = Inhibitory activity against the growth of LCC6-MDR (Multi Drug Resistant 1 transduced line) cell line after 72 hours of drug exposure; format: functional; conditions: Homo sapiens, LCC6MDR

IC50 (MCF7 [1]) | IC50 (MCF7 [2]) | SMILES | IC50 [3] | Ratio (MCF7 [4]) | IC50 [5]
0.6 nM | 1.5 nM | CCC(=O)O[C@H]1C(=O)[C@@]2(C)C([C@H](OC(=O)c3cccc(OC)c3)[C@]3(O)C[C@H](OC(=O)[C@H](O)[C@@H](NC(=O)OC(C)(C)C)[C@H]4CC4(C)C)C(C)=C1C3(C)C)[C@]1(OC(C)=O)CO[C@@H]1C[C@@H]2O (some centres undefined) | 0.48 nM |  | 
 |  | CCC(=O)O[C@H]1C(=O)[C@@]2(C)C([C@H](OC(=O)c3cccc(F)c3)[C@]3(O)C[C@H](OC(=O)[C@H](O)[C@H](C=C(C)C)NC(=O)OC(C)(C)C)C(C)=C1C3(C)C)[C@]1(OC(C)=O)CO[C@@H]1C[C@@H]2O (some centres undefined) | 0.5 nM |  | 
0.8 nM | 2.3 nM | COc1cccc(C(=O)O[C@H]2C3[C@](C)(C(=O)[C@H](OC(C)=O)C4=C(C)[C@@H](OC(=O)[C@H](O)[C@H](C=C(C)C)NC(=O)OC(C)(C)C)C[C@]2(O)C4(C)C)[C@@H](O)C[C@H]2OC[C@@]32OC(C)=O)c1 (some centres undefined) | 0.6 nM |  | 
0.4 nM | 4.3 nM | CCC(=O)O[C@H]1C(=O)[C@@]2(C)C([C@H](OC(=O)c3cccc(OC)c3)[C@]3(O)C[C@H](OC(=O)[C@H](O)[C@@H](NC(=O)OC(C)(C)C)C(F)F)C(C)=C1C3(C)C)[C@]1(OC(C)=O)CO[C@@H]1C[C@@H]2O (some centres undefined) | 1.5 nM |  | 
 |  | COc1cccc(C(=O)O[C@H]2C3[C@](C)(C(=O)[C@H](OC(=O)C4CC4)C4=C(C)[C@@H](OC(=O)[C@H](O)[C@H](C=C(C)C)NC(=O)OC(C)(C)C)C[C@]2(O)C4(C)C)[C@@H](O)C[C@H]2OC[C@@]32OC(C)=O)c1 (some centres undefined) | 1 nM | 2.9 | 2.9 nM
2 nM | 7.7 nM | C=CCC[C@H](NC(=O)OC(C)(C)C)[C@@H](O)C(=O)O[C@H]1C[C@@]2(O)[C@@H](OC(=O)c3cccc(OC)c3)C3[C@](C)(C(=O)[C@H](OC(=O)CC)C(=C1C)C2(C)C)[C@@H](O)C[C@H]1OC[C@@]31OC(C)=O (some centres undefined) | 0.9 nM |  | 
 |  | CCC(=O)O[C@H]1C(=O)[C@@]2(C)C([C@H](OC(=O)c3cccc(F)c3)[C@]3(O)C[C@H](OC(=O)[C@H](O)[C@H](CC(C)C)NC(=O)OC(C)(C)C)C(C)=C1C3(C)C)[C@]1(OC(C)=O)CO[C@@H]1C[C@@H]2O (some centres undefined) | 0.4 nM |  | 
 |  | C/C=C\[C@H](NC(=O)OC(C)(C)C)[C@@H](O)C(=O)O[C@H]1C[C@@]2(O)[C@@H](OC(=O)c3cccc(OC)c3)C3[C@](C)(C(=O)[C@H](OC(=O)CC)C(=C1C)C2(C)C)[C@@H](O)C[C@H]1OC[C@@]31OC(C)=O (some centres undefined) | 1.2 nM |  | 
 |  | CCC(=O)O[C@H]1C(=O)[C@@]2(C)C([C@H](OC(=O)c3cccc(Cl)c3)[C@]3(O)C[C@H](OC(=O)[C@H](O)[C@H](C=C(C)C)NC(=O)OC(C)(C)C)C(C)=C1C3(C)C)[C@]1(OC(C)=O)CO[C@@H]1C[C@@H]2O (some centres undefined) | 0.8 nM |  | 
1 nM | 2.1 nM | CCC(=O)O[C@H]1C(=O)[C@@]2(C)C([C@H](OC(=O)c3cccc(N=[N+]=[N-])c3)[C@]3(O)C[C@H](OC(=O)[C@H](O)[C@H](CC(C)C)NC(=O)OC(C)(C)C)C(C)=C1C3(C)C)[C@]1(OC(C)=O)CO[C@@H]1C[C@@H]2O (some centres undefined) | 1.1 nM |  | 
0.8 nM | 8.7 nM | C=CC[C@H](NC(=O)OC(C)(C)C)[C@@H](O)C(=O)O[C@H]1C[C@@]2(O)[C@@H](OC(=O)c3cccc(OC)c3)C3[C@](C)(C(=O)[C@H](OC(=O)CC)C(=C1C)C2(C)C)[C@@H](O)C[C@H]1OC[C@@]31OC(C)=O (some centres undefined) | 1.2 nM |  | 
0.8 nM | 5 nM | CC(=O)O[C@H]1C(=O)[C@@]2(C)C([C@H](OC(=O)c3cccc(C)c3)[C@]3(O)C[C@H](OC(=O)[C@H](O)[C@H](C=C(C)C)NC(=O)OC(C)(C)C)C(C)=C1C3(C)C)[C@]1(OC(C)=O)CO[C@@H]1C[C@@H]2O (some centres undefined) | 1.5 nM |  | 
 |  | C=Cc1cccc(C(=O)O[C@H]2C3[C@](C)(C(=O)[C@H](OC(=O)CC)C4=C(C)[C@@H](OC(=O)[C@H](O)[C@H](C=C(C)C)NC(=O)OC(C)(C)C)C[C@]2(O)C4(C)C)[C@@H](O)C[C@H]2OC[C@@]32OC(C)=O)c1 (some centres undefined) | 2.9 nM |  | 
0.9 nM | 1.1 nM | CCC(=O)O[C@H]1C(=O)[C@@]2(C)C([C@H](OC(=O)c3cccc(N=[N+]=[N-])c3)[C@]3(O)C[C@H](OC(=O)[C@H](O)[C@H](C=C(C)C)NC(=O)OC(C)(C)C)C(C)=C1C3(C)C)[C@]1(OC(C)=O)CO[C@@H]1C[C@@H]2O (some centres undefined) | 0.9 nM |  | 
 |  | CC(=O)O[C@@]12CO[C@@H]1C[C@H](O)[C@@]1(C)C(=O)[C@H](O)C3=C(C)[C@@H](OC(=O)[C@H](O)[C@@H](NC(=O)OC(C)(C)C)c4ccccc4)C[C@@](O)([C@@H](OC(=O)c4ccccc4)[C@H]21)C3(C)C.O.O.O [DOCETAXEL] | 1 nM |  | 120 nM
 |  | CC(=O)O[C@H]1C(=O)[C@@]2(C)[C@H]([C@H](OC(=O)c3ccccc3)[C@]3(O)C[C@H](OC(=O)[C@H](O)[C@@H](NC(=O)c4ccccc4)c4ccccc4)C(C)=C1C3(C)C)[C@]1(OC(C)=O)CO[C@@H]1C[C@@H]2O [PACLITAXEL] | 3.1 nM |  | 346 nM

SMILES | IC50 (MCF7 [1]) | IC50 (MCF7 [2]) | IC50 [3] | Ratio (MCF7 [4]) | IC50 [5]
CCC(=O)O[C@H]1C(=O)[C@@]2(C)C([C@H](OC(=O)c3cccc(OC)c3)[C@]3(O)C[C@H](OC(=O)[C@H](O)[C@H](C=C(C)C)NC(=O)OC(C)(C)C)C(C)=C1C3(C)C)[C@]1(OC(C)=O)CO[C@@H]1C[C@@H]2O (some centres undefined) | 0.36 nM | 0.33 nM | 1 nM |  | 
